Consider 5 molecules from paper PMC12281477, “Live-Cell NanoBRET Assay to Measure AKT Inhibitor Binding to Conformational States of AKT” (ACS Chemical Biology, 2025).

The structures appear in SMILES notation.

The target of assay [1] is T1, AKT2-NL (Homo sapiens, UniProt P31751).
T1 construct: full-length versions of AKT1, AKT2, and AKT3, were separately subcloned into pNLF1-N or pNLF1-C vectors; expressed in transfected cells; host or cells: HEK293T
As to the kind of experiment: Bioluminescent imaging of AKT2-NL localization in HEK293T cells. In kind it is cell-based. The settings on record: 2 h treatment, compared to DMSO. On the procedure:
(§1) We also performed bioluminescent imaging on AKT1-NL, AKT2-NL, and AKT3-NL transfected into HEK293T cells treated individually with all AKT inhibitors for 2 h (Figure S1F). […] After incubation, 2 μL of NanoGlo substrate was added to each well and imaged using the GloMax Galaxy Bioluminescence Imager utilizing a 40× objective (Nikon CFI Plan Fluor- Material Number MRH01401) and exposure times ranging from 32 to 100 s. […] Images were processed in Fiji.

Assay [2] deals with T2, AKT1-NL (Homo sapiens, UniProt P31749).
T2 construct: full-length versions of AKT1, AKT2, and AKT3, were separately subcloned into pNLF1-N or pNLF1-C vectors; expressed in transfected cells; host or cells: HEK293T
Nature of the assay: Bioluminescent imaging of AKT1-NL localization in HEK293T cells. Particulars: 2 h treatment, compared to DMSO. In kind it is cell-based. How it is done:
as §1

Assay [3] addresses T3, AKT3-NL (Homo sapiens, UniProt Q9Y243). Nature of the assay: Bioluminescent imaging of AKT3-NL localization in HEK293T cells. In kind it is cell-based. Also noted: full-length versions of AKT1, AKT2, and AKT3, were separately subcloned into pNLF1-N or pNLF1-C vectors; expressed in transfected cells; host or cells: HEK293T. The settings on record: 2 h treatment, compared to DMSO. How it is done: as §1

For assay [4], the target named is T4, AKT3-E17K-NL (Homo sapiens, UniProt Q9Y243, E17K).
T4 construct: full-length versions of AKT1, AKT2, and AKT3, were separately subcloned into pNLF1-N or pNLF1-C vectors; expressed in transfected cells
Nature of the assay: NanoBRET competition assay, AKT3-E17K-NL. Format: binding. In general terms: BRET reads energy transfer from a luciferase to a nearby fluorophore.
Procedure: We next quantified the binding of ATP-competitive and allosteric inhibitors to these pathogenic mutants.
For coexpression experiments with Myr-AKT1-NL and PDK1, a DNA ratio of 9:0.5:0.5, μg/mL carrier DNA/Myr-AKT1-NL: PDK1 was used. This solution was aliquoted into white adherent 96-well plates at a volume of 100 μL/well and incubated for 24 h at 37 °C and 5% CO2. […] Following all inhibitor and tracer additions, cells were incubated at 37 °C and 5% CO2 for 2 h. 50 μL of a 3× solution of Opti-MEM containing a NanoGlo substrate and NanoLuciferase inhibitor provided in the NanoBRET kit were added to each well.
(§2) Calculated K i values were calculated using the following formula Ki=IC50,tracer/(1+[tracer]/EC50,tracer)

In assay [5] the test system is MDA-MB-468 cells. Nature of the assay: Resazurin cell viability assay, MDA-MB-468. Format: cell-based. Particulars: Homo sapiens, MDA-MB-468, 120 h, 5 days, ± SEM, n = 3. On the technique in general: Alamar Blue is a resazurin reagent that responds to reducing activity.
Assay [6] addresses T3, AKT3-NL. Nature of the assay: Live-cell steady-state NanoBRET target engagement assay, AKT3-NL.
Procedure: (§3) In this live-cell assay, bioluminescence resonance energy transfer (BRET) produced by the interaction of a transfected NanoLuciferase (NL)-tagged protein of interest and a protein-bound Bodipy-containing tracer molecule is dose-dependently competed out with a drug.
(§4) This solution was aliquoted into white adherent 96-well plates at a volume of 100 μL/well and incubated for 24 h at 37 °C and 5% CO2. […] Following all inhibitor and tracer additions, cells were incubated at 37 °C and 5% CO2 for 2 h. 50 μL of a 3× solution of Opti-MEM containing a NanoGlo substrate and NanoLuciferase inhibitor provided in the NanoBRET kit were added to each well.
as §2
Assay [7] addresses T5, Myr-AKT1-NL (Homo sapiens, UniProt P31749).
T5 construct: host or cells: HEK293T
As to the kind of experiment: NanoBRET target engagement assay, Myr-AKT1-NL. Format: binding. The text has this:
It was puzzling to understand why ATP-competitive inhibitors bound more tightly to some pathological mutants. […] To achieve an active AKT population characterized by increased phosphorylation and membrane association, we created N-terminally myristoylated AKT1–3-NL constructs (Figure A). AKT myristoylation is commonly used to keep AKT membrane-associated and available for phosphorylation by PDK1 and mTORC2. , We decided to use myristoylation instead of treatment with a PI3K-AKT stimulating hormone such as IGF1 because of transient time-dependent effects on phosphorylation that complicates the reproducibility of our NanoBRET assay. , Bioluminescent imaging of Myr-AKT1-NL, Myr-AKT2-NL, and Myr-AKT3-NL constructs confirmed that each isoform was associated at the cell membrane (Figure S4A).
Statistics were performed in Origin 2023.

Assay [8] relates to MDA-MB-231 cells. Nature of the assay: Resazurin cell viability assay, MDA-MB-231. The settings on record: Homo sapiens, MDA-MB-231, 120 h, 5 days, ± SEM, n = 3. Format: cell-based.
Assay [9] concerns the target T2, AKT1-NL. As to the kind of experiment: Live-cell steady-state NanoBRET target engagement assay, AKT1-NL. In kind it is binding.
Procedure: as §3, §4, §2
In assay [10] the target is T6, PDK1-NL (Homo sapiens, UniProt O15530).
T6 sequence (O15530 1-556): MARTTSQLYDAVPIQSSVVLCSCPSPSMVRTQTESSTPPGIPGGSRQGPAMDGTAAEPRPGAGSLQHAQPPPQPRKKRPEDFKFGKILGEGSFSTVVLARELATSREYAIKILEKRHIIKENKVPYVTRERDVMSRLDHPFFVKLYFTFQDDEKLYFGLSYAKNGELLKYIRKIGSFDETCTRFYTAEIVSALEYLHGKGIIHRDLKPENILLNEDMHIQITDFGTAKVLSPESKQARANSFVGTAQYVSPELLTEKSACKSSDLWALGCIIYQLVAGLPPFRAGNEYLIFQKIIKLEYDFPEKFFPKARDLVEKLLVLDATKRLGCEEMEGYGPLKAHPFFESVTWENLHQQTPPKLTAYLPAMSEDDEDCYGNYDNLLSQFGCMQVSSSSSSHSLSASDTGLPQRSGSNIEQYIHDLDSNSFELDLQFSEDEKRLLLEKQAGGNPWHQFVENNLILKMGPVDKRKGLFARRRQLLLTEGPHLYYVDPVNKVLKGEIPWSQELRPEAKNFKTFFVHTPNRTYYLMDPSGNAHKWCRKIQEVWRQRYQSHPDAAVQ
As to the kind of experiment: NanoBRET competition assay using PDK1-NL. Format: binding. The settings on record: ± SEM, n = 3 biological replicates; read-out: PDK1-NL calculated Ki.
Procedure: as §4, §2

Setting [11] is: vs absence of BX-795, 0.2% DMSO.

T3 sequence (Q9Y243 whole entry): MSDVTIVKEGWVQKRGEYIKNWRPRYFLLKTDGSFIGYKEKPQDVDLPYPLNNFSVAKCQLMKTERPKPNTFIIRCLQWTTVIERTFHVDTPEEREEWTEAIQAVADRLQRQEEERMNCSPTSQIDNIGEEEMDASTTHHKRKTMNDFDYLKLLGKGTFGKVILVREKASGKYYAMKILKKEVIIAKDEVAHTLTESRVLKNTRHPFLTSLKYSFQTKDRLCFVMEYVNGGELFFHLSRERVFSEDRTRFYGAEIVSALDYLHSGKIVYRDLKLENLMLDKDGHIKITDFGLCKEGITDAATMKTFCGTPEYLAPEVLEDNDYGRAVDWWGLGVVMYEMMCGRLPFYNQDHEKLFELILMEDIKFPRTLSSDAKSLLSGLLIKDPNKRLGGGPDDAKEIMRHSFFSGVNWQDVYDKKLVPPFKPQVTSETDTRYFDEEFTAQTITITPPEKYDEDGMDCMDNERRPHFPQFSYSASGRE
T2 sequence (P31749 whole entry): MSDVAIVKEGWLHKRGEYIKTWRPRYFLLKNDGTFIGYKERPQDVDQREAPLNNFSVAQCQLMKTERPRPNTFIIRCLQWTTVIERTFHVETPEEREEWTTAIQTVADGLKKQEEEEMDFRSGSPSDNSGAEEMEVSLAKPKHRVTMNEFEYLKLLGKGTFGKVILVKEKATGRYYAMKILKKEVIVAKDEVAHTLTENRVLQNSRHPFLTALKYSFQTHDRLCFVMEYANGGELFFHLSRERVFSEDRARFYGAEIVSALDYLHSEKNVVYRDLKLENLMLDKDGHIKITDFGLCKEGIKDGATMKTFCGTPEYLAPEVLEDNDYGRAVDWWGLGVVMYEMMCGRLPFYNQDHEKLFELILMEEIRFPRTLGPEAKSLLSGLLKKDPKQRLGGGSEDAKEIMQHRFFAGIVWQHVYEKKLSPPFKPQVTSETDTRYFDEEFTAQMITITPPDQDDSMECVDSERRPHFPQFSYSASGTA
T1 sequence (P31751 whole entry): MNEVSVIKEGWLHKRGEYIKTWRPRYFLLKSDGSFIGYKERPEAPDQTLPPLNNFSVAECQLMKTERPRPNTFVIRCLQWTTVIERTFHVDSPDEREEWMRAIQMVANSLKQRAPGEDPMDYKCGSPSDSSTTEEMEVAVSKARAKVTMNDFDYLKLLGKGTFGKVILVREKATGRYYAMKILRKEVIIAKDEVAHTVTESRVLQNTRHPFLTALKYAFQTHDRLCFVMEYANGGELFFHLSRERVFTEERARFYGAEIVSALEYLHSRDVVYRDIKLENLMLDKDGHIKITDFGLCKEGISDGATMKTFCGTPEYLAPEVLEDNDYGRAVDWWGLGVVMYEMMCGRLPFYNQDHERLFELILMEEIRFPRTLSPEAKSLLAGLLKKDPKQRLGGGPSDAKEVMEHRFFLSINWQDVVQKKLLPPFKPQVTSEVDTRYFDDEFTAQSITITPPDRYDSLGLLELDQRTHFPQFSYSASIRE
T5 sequence (P31749 whole entry): as the sequence (P31749 whole entry) above
T4 sequence (Q9Y243 whole entry E17K): as the sequence (Q9Y243 whole entry) above, with E17K counted along it

In the case of `NC1(c2ccc(-c3nc4ccn5c(=O)[nH]nc5c4cc3-c3ccccc3)cc2)CCC1` [MK-2206], the AKT2-NL localization change entry in assay [1] is “did not induce AKT localization changes”. Moreover, the AKT1-NL localization change entry in assay [2] is given as “did not induce AKT localization changes”. The AKT3-NL localization change entry in [3] was “did not induce AKT localization changes”. For the same molecule, the “Binding to AKT3-E17K-NL” value in assay [4] is given as “did not bind”.

Consider `Cc1n[nH]c2ccc(-c3cncc(OCC(N)Cc4c[nH]c5ccccc45)c3)cc12` (stereo not shown) [A-443654], for which the values for the concentration for half-maximal inhibition (IC50) in assay [5] and in [8] were 20 ± 1 nM and 330 ± 10 nM, respectively. The inhibitory constant (Ki) in assay [6] came out at 16.6 ± 5.5 nM; in assay [9], 32.7 ± 14.1 nM. The “Binding to Myr-AKT1-NL in the presence of 1 μM BX-795” value in assay [7] (setting [11]) was “bound more weakly”. Besides, the AKT1-NL localization change entry in assay [2] was “induced movement of all isoforms to the cell membrane and nucleus”. Further, in [3], the AKT3-NL localization change entry is “induced movement of all isoforms to the cell membrane and nucleus”. In assay [9] (setting [11]), the “Binding to AKT1-NL in the presence of 1 μM BX-795” value is “unaffected”.

For `CC(C)NC[C@@H](C(=O)N1CCN(c2ncnc3c2[C@H](C)C[C@H]3O)CC1)c1ccc(Cl)cc1` [ipatasertib], the AKT1-NL localization change entry in assay [2] is “induced the movement of some AKT to the cell membrane”.

Regarding `O=C(NCCCNc1nc(Nc2cccc(NC(=O)N3CCCC3)c2)ncc1I)c1cccs1` [BX-795], the “Concentration at which some binding to Myr-AKT1-NL was observed” value in assay [7] (dose-response curve) was “higher than 1 μM”. Moreover, the inhibition constant (Ki) in assay [10] was 5.85 ± 0.42 nM. Also, the “Concentration at which some binding to AKT1-NL was observed” value in assay [9] (dose-response curve) is “higher than 1 μM”.

On to `O=c1[nH]c2ccccc2n1C1CCN(Cc2ccc(-c3nc4cc5[nH]cnc5cc4nc3-c3ccccc3)cc2)CC1` [inhibitor VIII], for which the AKT2-NL localization change entry in assay [1] was “did not induce AKT localization changes”. Also, the AKT1-NL localization change entry in [2] was “did not induce AKT localization changes”. Also, the AKT3-NL localization change result in assay [3] is “did not induce AKT localization changes”.

For orientation: IC50 means the midpoint of a concentration-inhibition curve. A low value points to inhibition by little substance. As a reminder, the Ki is the dissociation constant of the complex between target and ligand, obtained from inhibition or displacement.
